According to the Deep4Chem optical property database:

Assay: solvent given as SMILES

Work on Cc1nc2c(ccc3c2sc(/C=C/c2ccc(N(CCO)CCO)cc2)[n+]3C)s1 yielded an emission maximum (in CO) of 601 nm and an emission maximum (in ClC(Cl)Cl) of 603 nm.
Molecule COC(=O)c1ccc(C#Cc2ccc(N(C)C)cc2)cc1 has an emission maximum (in C1CCCCC1) of 426 nm, an emission maximum (in C1CCOC1) of 482 nm and an emission maximum (in C1COCCO1) of 450 nm. It also gave an emission maximum (in CC1CCCO1) of 464.51 nm, an emission maximum (in CC#N) of 544.01 nm and an emission maximum (in CC(C)=O) of 426.99 nm. It also gave an emission maximum (in CC(C)CC(C)(C)C) of 377.5 nm, an emission maximum (in CC(C)O) of 441.5 nm and an emission maximum (in CCCCCCCCCCCCCCCC) of 370 nm. For the same molecule, the emission maximum (in CCCCCCCCCCCCCCCCCl) was 382.5 nm, the emission maximum (in CCOC(C)=O) was 470.5 nm and the emission maximum (in CCOCC) was 458.51 nm. It also gave an emission maximum (in CN(C)C=O) of 524 nm, an emission maximum (in CO) of 465.01 nm and an emission maximum (in CS(C)=O) of 548.49 nm. It also gave an emission maximum (in Cc1ccccc1) of 381 nm.
COc1ccc2c(C#N)cc3ccc4cc(C#N)c5ccc(OC)cc5c4c3c2c1 gave an emission maximum (in ClC(Cl)Cl) of 426 nm.
In the case of N#Cc1c(N2CCCCC2)cc(-c2ccc3ccccc3c2)c2c1Cc1ccccc1-2, the emission maximum (in C1CCOC1) is reported as 465 nm.
In the case of CCn1c(-c2ccc(OC)cc2)c(-c2ccc3ccccc3c2)c(-c2ccc3ccccc3c2)c1-c1ccc(OC)cc1, the emission maximum (in CCOC(C)=O) is reported as 404 nm.
Molecule C(#Cc1cc2ccc3cc(C#Cc4ccccc4)cc4ccc(c1)c2c34)c1ccccc1 has an emission maximum (in Cc1ccccc1) of 418 nm.
Molecule Oc1ccccc1/C=N/c1cc2nc3ccccc3nc2cc1/N=C/c1ccccc1O has an emission maximum (in CC#N) of 501 nm.
CC(C)(C)c1ccc2c(c1)c1cc(C(C)(C)C)ccc1n2-c1ccc(S(=O)(=O)c2ccc(S(=O)(=O)c3ccc(-n4c5ccc(C(C)(C)C)cc5c5cc(C(C)(C)C)ccc54)cc3)cc2)cc1 showed an emission maximum (in Cc1ccccc1) of 446 nm.
CCOC(=O)C1=CN(c2ccccc2)C=C(C(=O)OCC)C1 showed an emission maximum (in C1CCOC1) of 426 nm and an emission maximum (in CO) of 441 nm.
For CCN(CC)c1ccc2cc(-c3cc(SC)c(C#N)c(=O)o3)c(=O)oc2c1, the emission maximum (in C1CCOC1) was 558 nm, the emission maximum (in CC#N) was 578 nm and the emission maximum (in CC(C)=O) was 573 nm. It also gave an emission maximum (in CCOC(C)=O) of 554 nm, an emission maximum (in CN(C)C=O) of 585 nm and an emission maximum (in CO) of 582 nm. It also gave an emission maximum (in CS(C)=O) of 593 nm, an emission maximum (in Cc1ccccc1) of 533 nm and an emission maximum (in ClC(Cl)Cl) of 547 nm. It also gave an emission maximum (in ClCCl) of 560 nm.
In the case of CN(C)c1ccc(C2=Nc3sc4cc(C(F)(F)F)ccc4[n+]3[B-](F)(F)O2)cc1, the emission maximum (in C1CCOC1) is reported as 486 nm, the emission maximum (in CC#N) is reported as 500 nm and the emission maximum (in CC(C)=O) is reported as 495 nm. It also gave an emission maximum (in Cc1ccccc1) of 460 nm and an emission maximum (in ClCCl) of 478 nm.
For CCCCCCCCOc1ccc(C2=C3C(C)=C(C#Cc4ccc(B(c5c(C)cc(C)cc5C)c5c(C)cc(C)cc5C)cc4)C(C)=[N+]3[B-](F)(F)n3c(C)c(C#Cc4ccc(B(c5c(C)cc(C)cc5C)c5c(C)cc(C)cc5C)cc4)c(C)c32)cc1, the emission maximum (in CC#N) was 598 nm, the emission maximum (in CCCCCC) was 604 nm and the emission maximum (in ClCCl) was 602 nm.
With CCN1\C(=C/C=C/C=C/C2=[N+](CC)c3ccc4ccccc4c3C2(C)C)C(C)(C)c2c1ccc1ccccc21 the emission maximum (in C1CCOC1) was 707 nm, the emission maximum (in CC#N) was 695 nm and the emission maximum (in CC(C)=O) was 698 nm. For the same molecule, the emission maximum (in CCO) was 702 nm, the emission maximum (in CN(C)C=O) was 702 nm and the emission maximum (in CO) was 698 nm. The emission maximum (in CS(C)=O) was 705 nm and the emission maximum (in ClCCl) was 710 nm.
In the case of CCCCN1C(=O)C2=C(c3ccc(-c4ccc5c(c4)C(C)(C)c4ccccc4-5)cc3)[N-]C(=O)C2=C1c1ccc(-c2ccc3c(c2)C(C)(C)c2ccccc2-3)cc1, the emission maximum (in ClCCl) is reported as 635 nm.
For CCCC1=Cc2nc1ccc1[nH]c(cc1CCC)c1nc(c(OC(=O)CCCC(=O)OC(C)(C)C)cc3[nH]c2cc3CCC)C(CCC)=C1, the emission maximum (in Cc1ccccc1) was 651 nm.
CCCC1(CCC)c2ccccc2-c2ccccc21 showed an emission maximum (in C1CCCCC1) of 309 nm.
CCN(CC)c1ccc(-c2ccc(-c3nc4ccccc4c(=O)[nH]3)s2)cc1 showed an emission maximum (in CC#N) of 541 nm and an emission maximum (in Cc1ccccc1) of 490 nm.
Work on Cc1ccccc1N(c1ccc(C(C)(C)C)cc1)c1ccc2ccc3c(N(c4ccc(C(C)(C)C)cc4)c4ccccc4C)ccc4ccc1c2c43 yielded an emission maximum (in Cc1ccccc1) of 462 nm.
For COc1ccc2cc(-c3ccc(C(F)(F)F)cc3)oc(=O)c2c1, the emission maximum (in CCCCCC) was 397 nm, the emission maximum (in CCCCCCCCO) was 410 nm and the emission maximum (in CCCCO) was 411 nm. It also gave an emission maximum (in CCCO) of 410 nm, an emission maximum (in CCO) of 412 nm and an emission maximum (in CCOC(C)=O) of 404 nm. The emission maximum (in CN(C)C=O) was 411 nm, the emission maximum (in CO) was 413 nm and the emission maximum (in ClC(Cl)Cl) was 409 nm.
Molecule CSc1ccc2c(c1)N(CCCN1CCN(C)CN1C)c1ccccc1S2 has an emission maximum (in CC#N) of 455 nm, an emission maximum (in CO) of 453 nm and an emission maximum (in O) of 466 nm.
Molecule c1ccc2c(c1)cc(-c1cc(-c3nccs3)nc(-c3nccs3)c1)c1ccccc12 has an emission maximum (in CC#N) of 403 nm, an emission maximum (in CCCCCC) of 361 nm and an emission maximum (in CO) of 431 nm. It also gave an emission maximum (in ClC(Cl)Cl) of 383 nm.
CC(=O)Nc1ccc2c3c(cccc13)C(=O)c1ccccc1-2 gave an emission maximum (in CC#N) of 539.96 nm, an emission maximum (in CC(C)=O) of 526.04 nm and an emission maximum (in CC(C)O) of 567.86 nm. It also gave an emission maximum (in CCCCOCCCC) of 507.1 nm, an emission maximum (in CCOC(C)=O) of 520.02 nm and an emission maximum (in CCOCC) of 518.13 nm. For the same molecule, the emission maximum (in CO) was 573.07 nm, the emission maximum (in Cc1ccccc1) was 516 nm and the emission maximum (in Clc1ccccc1) was 520.02 nm. It also gave an emission maximum (in N#Cc1ccccc1) of 527.98 nm and an emission maximum (in O=C1CCCCC1) of 526.87 nm.
CN(C)c1ccc(-c2cc(-c3cccs3)nc(-c3ccccc3)n2)cc1 showed an emission maximum (in ClC(Cl)Cl) of 473 nm.
Work on CC(C)(C)c1ccc2c(c1)c1cc(C(C)(C)C)ccc1n2-c1ccc(C(=CC#N)c2ccc(-n3c4ccc(C(C)(C)C)cc4c4cc(C(C)(C)C)ccc43)cc2)cc1 yielded an emission maximum (in Cc1ccccc1) of 450 nm.
In the case of Cc1ccc(-c2cc(-c3ccccc3Cl)c3c(N)nc(N4CCCC4)c(C#N)c3n2)cc1, the emission maximum (in CC#N) is reported as 526 nm, the emission maximum (in CC(C)=O) is reported as 522 nm and the emission maximum (in CC(C)O) is reported as 516 nm. It also gave an emission maximum (in CO) of 525 nm, an emission maximum (in ClC(Cl)Cl) of 508 nm and an emission maximum (in ClCCl) of 514 nm. The emission maximum (in c1ccccc1) was 512 nm.
CN(/N=C1\N=C(N)C2(CCCC2)c2ccccc21)c1ccccc1 gave an emission maximum (in ClCCl) of 471 nm.
For CCCCCCOc1cc(N(CC)CC)ccc1/C=C(\C#N)c1ccc(/C=C/C(=C(C#N)C#N)c2ccc3c(c2)c2ccccc2n3CC)s1, the emission maximum (in ClCCl) was 742 nm.
Work on Cc1cc(C)c(-c2nnc(-c3ccc(-n4c5ccccc5c5ccccc54)cc3)o2)c(C)c1 yielded an emission maximum (in CCO) of 435 nm and an emission maximum (in Cc1ccccc1) of 379 nm.
For c1ccc(C2=C(c3ccccc3)c3cccc4c3c(cc3nc5cc(-c6ccc(N(c7ccccc7)c7ccccc7)cc6)c(-c6ccc(N(c7ccccc7)c7ccccc7)cc6)cc5nc34)O2)cc1, the emission maximum (in ClCCl) was 568 nm.
CN(C)c1ccc(/C=C/c2nc3ccc(N(C)C)cc3oc2=O)cc1 gave an emission maximum (in C1CCCCC1) of 521 nm, an emission maximum (in C1COCCO1) of 581 nm and an emission maximum (in CC#N) of 650 nm. For the same molecule, the emission maximum (in CC(C)=O) was 626 nm, the emission maximum (in CC(O)CO) was 649.5 nm and the emission maximum (in CCCCCCC) was 519 nm. The emission maximum (in CCO) was 666 nm, the emission maximum (in CCOC(C)=O) was 587 nm and the emission maximum (in CN(C)C=O) was 650 nm. For the same molecule, the emission maximum (in CS(C)=O) was 666 nm, the emission maximum (in Cc1ccccc1) was 567 nm and the emission maximum (in ClC(Cl)Cl) was 627 nm. The emission maximum (in ClCCl) was 619 nm and the emission maximum (in OCC(O)CO) was 659 nm.
For CC1(C)Nc2cc3nc4cc(Br)c(Br)cc4nc3cc2N1, the emission maximum (in CCO) was 508 nm.
With CC(C)(C)OC(=O)NCC(=O)OCc1ccc2c3cccc4cccc(c5cccc1c52)c43 the emission maximum (in CCO) was 446 nm.
Work on CC1=CC(/C=C/c2ccc(C)cc2)=[N+]2C1=C(c1ccccc1)c1c(C)cc(/C=C/c3ccc(C)cc3)n1[B-]2(F)F yielded an emission maximum (in CC1CCCO1) of 645 nm.
CCN(CC)c1ccc2cc(-c3nc4ccccc4n3C)c(=O)oc2c1 showed an emission maximum (in CC#N) of 480 nm.
CC1=[N+]2C(=C(c3ccc(N(c4ccccc4)c4ccccc4)cc3)c3ccc(C)n3[B-]2(F)F)C=C1c1cc2n(c1)[B-](F)(F)[N+]1=CC=CC1=C2c1c(C)cc(C)cc1C showed an emission maximum (in C1CCCCC1) of 645 nm and an emission maximum (in CCOC(C)=O) of 680 nm.
Molecule CCCCN(CCCC)c1ccc(C#Cc2cc(C#Cc3ccc(C#N)cc3)c(C#Cc3ccc(C#N)cc3)cc2C#Cc2ccc(N(CCCC)CCCC)cc2)cc1 has an emission maximum (in ClCCl) of 563 nm and an emission maximum (in c1ccccc1) of 508 nm.
CCC1(CC)c2cc(B(c3c(C)cc(C)cc3C)c3c(C)cc(C)cc3C)ccc2-c2ccc(N(c3ccccc3)c3ccc4c(c3)C(CC)(CC)c3cc(B(c5c(C)cc(C)cc5C)c5c(C)cc(C)cc5C)ccc3-4)cc21 gave an emission maximum (in C1CCOC1) of 490 nm, an emission maximum (in CC#N) of 538 nm and an emission maximum (in CC(C)=O) of 515 nm. It also gave an emission maximum (in CCCCCC) of 445 nm, an emission maximum (in CN(C)C=O) of 533 nm and an emission maximum (in Cc1ccccc1) of 461 nm. The emission maximum (in ClC(Cl)Cl) was 477 nm.
F[B-]1(F)OC(c2ccc(N3CCCC3)cc2)=Cc2cccc[n+]21 showed an emission maximum (in ClC(Cl)Cl) of 496 nm.
In the case of CC1=[N+]2C(=C(c3ccc(C(=O)c4ccccc4)cc3)c3ccc(C)n3[B-]2(F)F)C=C1c1cc2n(c1)[B-](F)(F)[N+]1=CC=CC1=C2c1c(C)cc(C)cc1C, the emission maximum (in C1CCCCC1) is reported as 645 nm and the emission maximum (in CCOC(C)=O) is reported as 664 nm.
For N#CC(C#N)=C(c1ccc(N(c2ccccc2)c2ccccc2)cc1)c1ccc(N(c2ccccc2)c2ccccc2)cc1, the emission maximum (in C1CCCCC1) was 413.3 nm, the emission maximum (in CC(C)=O) was 505.58 nm and the emission maximum (in CN(C)C=O) was 515.24 nm. The emission maximum (in Cc1ccccc1) was 439.48 nm and the emission maximum (in ClC(Cl)Cl) was 491.2 nm.
Molecule COc1cc(-c2cnc(-c3ccncc3)o2)cc(OC)c1OC has an emission maximum (in ClCCl) of 465 nm.
With Cc1cc2c3ccccc3sc2c2[nH]c3ccccc3c12 the emission maximum (in ClCCl) was 365 nm.
In the case of C[P+](c1c2ccccc2cc2ccccc12)(c1c2ccccc2cc2ccccc12)c1c2ccccc2cc2ccccc12, the emission maximum (in C1CCOC1) is reported as 494 nm.
Molecule CC1=c2ccccc2=[N+]2C1=Cc1c3ccccc3c(-c3[nH]c4ccccc4c3C)n1[B-]2(F)F has an emission maximum (in ClCCl) of 648 nm.
With C(=C\c1ccc(-c2ccccc2)cc1)/c1ccc(Oc2ccc3ccccc3c2-c2c(Oc3ccc(/C=C/c4ccc(-c5ccccc5)cc4)cc3)ccc3ccccc23)cc1 the emission maximum (in ClCCl) was 385 nm.
O=C1CC(=O)Nc2cc([N+](=O)[O-])ccc2N1 gave an emission maximum (in CS(C)=O) of 403 nm.
In the case of CCn1c2ccc(-c3cccs3)cc2c2cc(-c3cccs3)ccc21, the emission maximum (in ClCCl) is reported as 392 nm.
With CC(C)Nc1cc2c(cc1F)c(=O)c1cc(F)c(NC(C)C)cc1n2C the emission maximum (in CCO) was 421 nm.
